Assay results published in ChEMBL document CHEMBL1201862, “PubChem BioAssay data set” (2004).
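Tested at 5 concentrations; 48 h exposure; 96-well plates; endpoints linearly interpolated, else capped at highest concentration. Here, GI50 denotes the concentration required for 50% inhibition of growth.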 Calls of active or inactive are those of the source. Cut-off read from the data, not from the text of the source: active = GI50 up to about 1.1 µM and inactive = higher.

How the values were obtained:
Assay in all cases: inhibition of tumour cell growth, NCI panel, 48 h
SR = test system: SR
CCRF-CEM = test system: CCRF-CEM
EKVX = test system: EKVX
Hs-578T = test system: Hs-578T
HOP-62 = test system: HOP-62
CAKI-1 = test system: CAKI-1
K562 = test system: K562
MDA-MB-435 = test system: MDA-MB-435
RPMI-8226 = test system: RPMI-8226
A498 = test system: A498
MCF7 = test system: MCF7
SF-268 = test system: SF-268
SF-295 = test system: SF-295
SNB-19 = test system: SNB-19
NCI-H226 = test system: NCI-H226
MDA-MB-231 = test system: MDA-MB-231
OVCAR-4 = test system: OVCAR-4
RXF 393 = test system: RXF 393
A549 = test system: A549
Malme-3M = test system: Malme-3M
NCI-H460 = test system: NCI-H460
NCI-H522 = test system: NCI-H522
SW-620 = test system: SW-620
HL-60 = test system: HL-60
MOLT-4 = test system: MOLT-4
ACHN = test system: ACHN
786-0 = test system: 786-0
LOX IMVI = test system: LOX IMVI
HCT-116 = test system: HCT-116
NCI/ADR-RES = test system: NCI/ADR-RES
HCC 2998 = test system: HCC 2998
SK-MEL-28 = test system: SK-MEL-28
UACC-257 = test system: UACC-257
KM12 = test system: KM12
BT-549 = test system: BT-549
U-251 = test system: U-251
TK-10 = test system: TK-10
OVCAR-8 = test system: OVCAR-8
DU-145 = test system: DU-145
COLO 205 = test system: COLO 205
OVCAR-3 = test system: OVCAR-3
HT-29 = test system: HT-29
SNB-75 = test system: SNB-75
UACC-62 = test system: UACC-62
PC-3 = test system: PC-3
NCI-H23 = test system: NCI-H23
HOP-92 = test system: HOP-92
IGROV-1 = test system: IGROV-1
HCT-15 = test system: HCT-15
SN12C = test system: SN12C
T47D = test system: T47D
UO-31 = test system: UO-31
SK-MEL-5 = test system: SK-MEL-5
SF-539 = test system: SF-539
MDA-N = test system: MDA-N
M14 = test system: M14
SK-OV-3 = test system: SK-OV-3
OVCAR-5 = test system: OVCAR-5
SK-MEL-2 = test system: SK-MEL-2

## Cc1nc2ccc(Cl)cc2c2c1CCN2c1ccccc1
SR
  GI50: 14.3 µM (inactive)
CCRF-CEM
  GI50: 5.62 µM (inactive)
EKVX
  GI50: 21.2 µM (inactive)
Hs-578T
  GI50: 21 µM (inactive)
HOP-62
  GI50: 21.5 µM (inactive)
CAKI-1
  GI50: 11.5 µM (inactive)
K562
  GI50: 5.05 µM (inactive)
MDA-MB-435
  GI50: 7.62 µM (inactive)
RPMI-8226
  GI50: 12.4 µM (inactive)
A498
  GI50: 14.8 µM (inactive)
MCF7
  GI50: 15.1 µM (inactive)
SF-268
  GI50: 23 µM (inactive)
SF-295
  GI50: 5.47 µM (inactive)
SNB-19
  GI50: 23.5 µM (inactive)
NCI-H226
  GI50: 7.89 µM (inactive)
MDA-MB-231
  GI50: 2.3 µM (inactive)
OVCAR-4
  GI50: 26.4 µM (inactive)
RXF 393
  GI50: 3.47 µM (inactive)
A549
  GI50: 15 µM (inactive)
Malme-3M
  GI50: 17.4 µM (inactive)
NCI-H460
  GI50: 7.74 µM (inactive)
NCI-H522
  GI50: 11.7 µM (inactive)
SW-620
  GI50: 18.6 µM (inactive)
HL-60
  GI50: 2.72 µM (inactive)
MOLT-4
  GI50: 7.03 µM (inactive)
ACHN
  GI50: 16.9 µM (inactive)
786-0
  GI50: 10.4 µM (inactive)
LOX IMVI
  GI50: 10.3 µM (inactive)
HCT-116
  GI50: 3.61 µM (inactive)
NCI/ADR-RES
  GI50: 11.7 µM (inactive)
HCC 2998
  GI50: 12.1 µM (inactive)
SK-MEL-28
  GI50: 14 µM (inactive)
UACC-257
  GI50: 15.2 µM (inactive)
KM12
  GI50: 17.5 µM (inactive)
BT-549
  GI50: 15.3 µM (inactive)
U-251
  GI50: 16.4 µM (inactive)
TK-10
  GI50: 12.7 µM (inactive)
OVCAR-8
  GI50: 15 µM (inactive)
DU-145
  GI50: 19.5 µM (inactive)
COLO 205
  GI50: 2.76 µM (inactive)
OVCAR-3
  GI50: 10.3 µM (inactive)
HT-29
  GI50: 7.18 µM (inactive)
SNB-75
  GI50: 23.7 µM (inactive)
UACC-62
  GI50: 10.3 µM (inactive)
PC-3
  GI50: 10.6 µM (inactive)
NCI-H23
  GI50: 14.1 µM (inactive)
HOP-92
  GI50: 8.59 µM (inactive)
IGROV-1
  GI50: 14.3 µM (inactive)
HCT-15
  GI50: 17.3 µM
SN12C
  GI50: 0.975 µM (active)
T47D
  GI50: 14.5 µM (inactive)
UO-31
  GI50: 8.89 µM (inactive)
SK-MEL-5
  GI50: 7.53 µM (inactive)
SF-539
  GI50: 13.4 µM (inactive)
MDA-N
  GI50: 1.5 µM (inactive)

## COc1cc(CC2c3cc(OC)c(OC)cc3CCN2C)c(Oc2cc3c(cc2OC)-c2c(O)c(OC)cc4c2C(C3)N(C)CC4)cc1OC (stereo not drawn)
SR
  GI50: 3.68 µM (inactive)
CCRF-CEM
  GI50: 18.8 µM (inactive)
EKVX
  GI50: 20.5 µM (inactive)
Hs-578T
  GI50: 18.2 µM (inactive)
HOP-62
  GI50: 23.7 µM (inactive)
CAKI-1
  GI50: 23.7 µM (inactive)
K562
  GI50: 10.8 µM (inactive)
MDA-MB-435
  GI50: 24 µM (inactive)
A498
  GI50: 22 µM (inactive)
MCF7
  GI50: 12.5 µM (inactive)
SF-268
  GI50: 17.8 µM (inactive)
SF-295
  GI50: 17.9 µM (inactive)
SNB-19
  GI50: 25.3 µM (inactive)
NCI-H226
  GI50: 26.7 µM (inactive)
MDA-MB-231
  GI50: 18.3 µM (inactive)
OVCAR-4
  GI50: 28.3 µM (inactive)
RXF 393
  GI50: 2.11 µM (inactive)
A549
  GI50: 33.2 µM (inactive)
Malme-3M
  GI50: 23.8 µM (inactive)
M14
  GI50: 5.04 µM (inactive)
NCI-H460
  GI50: 18.4 µM (inactive)
NCI-H522
  GI50: 17.8 µM (inactive)
SW-620
  GI50: 39.5 µM (inactive)
HL-60
  GI50: 4.01 µM (inactive)
MOLT-4
  GI50: 19.4 µM (inactive)
ACHN
  GI50: 22.9 µM (inactive)
786-0
  GI50: 23.1 µM (inactive)
LOX IMVI
  GI50: 16.5 µM (inactive)
HCT-116
  GI50: 18.1 µM (inactive)
NCI/ADR-RES
  GI50: 20.6 µM (inactive)
HCC 2998
  GI50: 13.1 µM (inactive)
SK-MEL-28
  GI50: 20.3 µM (inactive)
UACC-257
  GI50: 14.5 µM (inactive)
KM12
  GI50: 15 µM (inactive)
BT-549
  GI50: 14.8 µM (inactive)
U-251
  GI50: 24.5 µM (inactive)
TK-10
  GI50: 22 µM (inactive)
OVCAR-8
  GI50: 20.8 µM (inactive)
DU-145
  GI50: 24.1 µM (inactive)
COLO 205
  GI50: 11.4 µM (inactive)
OVCAR-3
  GI50: 20.4 µM (inactive)
SK-OV-3
  GI50: 41.1 µM (inactive)
HT-29
  GI50: 6.82 µM (inactive)
SNB-75
  GI50: 14.9 µM (inactive)
UACC-62
  GI50: 20.5 µM (inactive)
PC-3
  GI50: 23.3 µM (inactive)
NCI-H23
  GI50: 22.2 µM (inactive)
HOP-92
  GI50: 14.5 µM (inactive)
IGROV-1
  GI50: 20 µM (inactive)
OVCAR-5
  GI50: 45.8 µM (inactive)
HCT-15
  GI50: 14 µM
SN12C
  GI50: 22.1 µM (inactive)
T47D
  GI50: 22.1 µM (inactive)
SK-MEL-2
  GI50: 22.8 µM (inactive)
UO-31
  GI50: 18.5 µM (inactive)
SK-MEL-5
  GI50: 13.9 µM (inactive)
SF-539
  GI50: 14.1 µM (inactive)
MDA-N
  GI50: 16.7 µM (inactive)
